Numbers after ± are expanded uncertainties.
Test: molar heat capacity at saturation pressure

For `CCCCn1cc[n+](C)c1.Cc1ccc(S(=O)(=O)[O-])cc1` [1-butyl-3-methylimidazolium tosylate], the molar heat capacity (244.04 K, Crystal 1) was 352.94 ± 3.7 J/K/mol, the molar heat capacity (245.21 K, Metastable crystal) was 365.98 ± 3.7 J/K/mol and the molar heat capacity (245.66 K, Crystal 1) was 354.49 ± 3.7 J/K/mol. It also gave a molar heat capacity (245.73 K, Crystal 1) of 353.87 ± 3.7 J/K/mol, a molar heat capacity (245.93 K, Crystal 1) of 355.11 ± 3.7 J/K/mol and a molar heat capacity (247.08 K, Metastable crystal) of 367.84 ± 3.7 J/K/mol. The molar heat capacity (247.55 K, Crystal 1) was 356.97 ± 3.7 J/K/mol, the molar heat capacity (247.62 K, Crystal 1) was 356.04 ± 3.7 J/K/mol and the molar heat capacity (247.82 K, Crystal 1) was 357.29 ± 3.7 J/K/mol. The molar heat capacity (248.96 K, Metastable crystal) was 369.39 ± 3.7 J/K/mol, the molar heat capacity (249.44 K, Crystal 1) was 359.15 ± 3.7 J/K/mol and the molar heat capacity (249.51 K, Crystal 1) was 358.53 ± 3.7 J/K/mol. For the same compound, the molar heat capacity (249.71 K, Crystal 1) was 359.46 ± 3.7 J/K/mol, the molar heat capacity (250.83 K, Metastable crystal) was 371.25 ± 3.7 J/K/mol and the molar heat capacity (251.33 K, Crystal 1) was 361.32 ± 3.7 J/K/mol. It also gave a molar heat capacity (251.4 K, Crystal 1) of 360.39 ± 3.7 J/K/mol, a molar heat capacity (251.59 K, Crystal 1) of 361.63 ± 3.7 J/K/mol and a molar heat capacity (252.7 K, Metastable crystal) of 372.81 ± 3.7 J/K/mol. It also gave a molar heat capacity (253.22 K, Crystal 1) of 363.49 ± 3.7 J/K/mol, a molar heat capacity (253.29 K, Crystal 1) of 362.87 ± 3.7 J/K/mol and a molar heat capacity (253.47 K, Crystal 1) of 363.8 ± 3.7 J/K/mol. For the same compound, the molar heat capacity (254.58 K, Metastable crystal) was 374.67 ± 3.7 J/K/mol, the molar heat capacity (255.11 K, Crystal 1) was 365.67 ± 3.7 J/K/mol and the molar heat capacity (255.17 K, Crystal 1) was 364.74 ± 3.7 J/K/mol. It also gave a molar heat capacity (255.35 K, Crystal 1) of 365.98 ± 3.7 J/K/mol, a molar heat capacity (256.45 K, Metastable crystal) of 376.53 ± 4 J/K/mol and a molar heat capacity (256.99 K, Crystal 1) of 367.84 ± 3.7 J/K/mol. The molar heat capacity (257.06 K, Crystal 1) was 367.22 ± 3.7 J/K/mol, the molar heat capacity (257.23 K, Crystal 1) was 368.15 ± 3.7 J/K/mol and the molar heat capacity (258.32 K, Metastable crystal) was 378.39 ± 4 J/K/mol. For the same compound, the molar heat capacity (258.88 K, Crystal 1) was 370.01 ± 3.7 J/K/mol, the molar heat capacity (258.94 K, Crystal 1) was 369.08 ± 3.7 J/K/mol and the molar heat capacity (259.11 K, Crystal 1) was 370.32 ± 3.7 J/K/mol. For the same compound, the molar heat capacity (260.2 K, Metastable crystal) was 380.26 ± 4 J/K/mol, the molar heat capacity (260.77 K, Crystal 1) was 372.19 ± 3.7 J/K/mol and the molar heat capacity (260.82 K, Crystal 1) was 371.56 ± 3.7 J/K/mol. For the same compound, the molar heat capacity (261 K, Crystal 1) was 372.5 ± 3.7 J/K/mol, the molar heat capacity (262.07 K, Metastable crystal) was 381.81 ± 4 J/K/mol and the molar heat capacity (262.65 K, Crystal 1) was 374.36 ± 3.7 J/K/mol. The molar heat capacity (262.71 K, Crystal 1) was 373.43 ± 3.7 J/K/mol, the molar heat capacity (262.87 K, Crystal 1) was 374.67 ± 3.7 J/K/mol and the molar heat capacity (263.94 K, Metastable crystal) was 383.36 ± 4 J/K/mol. For the same compound, the molar heat capacity (264.53 K, Crystal 1) was 376.22 ± 4 J/K/mol, the molar heat capacity (264.59 K, Crystal 1) was 375.6 ± 3.7 J/K/mol and the molar heat capacity (264.75 K, Crystal 1) was 376.53 ± 4 J/K/mol. The molar heat capacity (265.82 K, Metastable crystal) was 385.53 ± 4 J/K/mol, the molar heat capacity (266.42 K, Crystal 1) was 378.39 ± 4 J/K/mol and the molar heat capacity (266.47 K, Crystal 1) was 377.46 ± 4 J/K/mol. It also gave a molar heat capacity (266.63 K, Crystal 1) of 378.39 ± 4 J/K/mol, a molar heat capacity (267.69 K, Metastable crystal) of 387.4 ± 4 J/K/mol and a molar heat capacity (268.31 K, Crystal 1) of 380.57 ± 4 J/K/mol. For the same compound, the molar heat capacity (268.36 K, Crystal 1) was 379.63 ± 4 J/K/mol, the molar heat capacity (268.52 K, Crystal 1) was 380.88 ± 4 J/K/mol and the molar heat capacity (269.56 K, Metastable crystal) was 388.95 ± 4 J/K/mol. The molar heat capacity (270.19 K, Crystal 1) was 382.43 ± 4 J/K/mol, the molar heat capacity (270.25 K, Crystal 1) was 381.81 ± 4 J/K/mol and the molar heat capacity (270.4 K, Crystal 1) was 382.74 ± 4 J/K/mol. For the same compound, the molar heat capacity (271.43 K, Metastable crystal) was 391.12 ± 4 J/K/mol, the molar heat capacity (272.08 K, Crystal 1) was 384.6 ± 4 J/K/mol and the molar heat capacity (272.14 K, Crystal 1) was 383.36 ± 4 J/K/mol. For the same compound, the molar heat capacity (272.29 K, Crystal 1) was 384.6 ± 4 J/K/mol, the molar heat capacity (273.3 K, Metastable crystal) was 393.6 ± 4 J/K/mol and the molar heat capacity (273.97 K, Crystal 1) was 386.46 ± 4 J/K/mol. For the same compound, the molar heat capacity (274.03 K, Crystal 1) was 385.53 ± 4 J/K/mol, the molar heat capacity (274.19 K, Crystal 1) was 386.46 ± 4 J/K/mol and the molar heat capacity (275.16 K, Metastable crystal) was 396.09 ± 4 J/K/mol. For the same compound, the molar heat capacity (275.87 K, Crystal 1) was 388.64 ± 4 J/K/mol, the molar heat capacity (275.92 K, Crystal 1) was 388.02 ± 4 J/K/mol and the molar heat capacity (276.08 K, Crystal 1) was 388.33 ± 4 J/K/mol. The molar heat capacity (277.01 K, Metastable crystal) was 399.5 ± 4 J/K/mol, the molar heat capacity (277.76 K, Crystal 1) was 391.12 ± 4 J/K/mol and the molar heat capacity (277.8 K, Crystal 1) was 390.5 ± 4 J/K/mol. The molar heat capacity (277.97 K, Crystal 1) was 390.81 ± 4 J/K/mol, the molar heat capacity (278.86 K, Metastable crystal) was 403.54 ± 4 J/K/mol and the molar heat capacity (279.64 K, Crystal 1) was 393.6 ± 4 J/K/mol. For the same compound, the molar heat capacity (279.67 K, Crystal 1) was 393.29 ± 4 J/K/mol, the molar heat capacity (279.85 K, Crystal 1) was 393.6 ± 4 J/K/mol and the molar heat capacity (280.7 K, Metastable crystal) was 407.57 ± 4.3 J/K/mol. For the same compound, the molar heat capacity (281.51 K, Crystal 1) was 396.71 ± 4 J/K/mol, the molar heat capacity (281.53 K, Crystal 1) was 397.02 ± 4 J/K/mol and the molar heat capacity (281.71 K, Crystal 1) was 397.02 ± 4 J/K/mol. It also gave a molar heat capacity (282.53 K, Metastable crystal) of 410.68 ± 4.3 J/K/mol.
